Laboratory results: US20240317741A1, “NAPHTHYRIDINE DERIVATIVE AS ATR INHIBITOR AND METHOD FOR PREPARING SAME” (WIGEN BIOMEDICINE TECHNOLOGY (SHANGHAI) CO., LTD., priority 2021, published 2024)

Columns and labels:
MIA PaCa-2 cells [1] = assay: In-vitro anti-proliferative activity in combination with gemcitabine against MIA PaCa-2 cells; format: cell-based; conditions: in combination with 20 nM gemcitabine, 72 h after dosing
Protocol: (§1) MIA PaCa-2 cells were seeded on a 384-well plate at 3000 cells/well, and 20 nM gemcitabine was added. After overnight adherence culture, DMSO or the compounds serially diluted 1:5 from 100 nM were added. […] The inhibition percentage of viable cells by the compounds was calculated by comparing with the DMSO group, and the IC50 value was calculated.

[2] = Liver microsomal stability (mouse); format: in vitro ADME; conditions: mouse liver microsomes, 1 μM compound, NADPH regeneration system, 37° C.; read-out: T1/2 (min) Mouse
Protocol: (§2) After 1 μM compound was incubated with 500 µg/mL of human or mouse liver microsomes and a NADPH regeneration system at 37° C. for different times, respectively, LC-MS-MS was used to analyze the remaining amount of the compound and calculate T1/2.

[3] = system: Human colon cancer LOVO cells; assay: In vivo efficacy in LoVo model; design: species or system nude mouse; conditions: LoVo model in nude mice, 20 mpk BID PO, days 1-3, 8-10, 15-17 and day 21
Protocol: After being subcultured, the cells were collected when they reached the desired amount. 1×10^7 LOVO cells were injected into the left dorsal side of each nude mouse, and the animals were randomly grouped for administration after tumors grew to 100-200 mm^3. The groups were as follows: a solvent control group of 8 mice and a compound group of 8 mice. The compounds were administered orally 3 days a week and interrupted for 4 days, for 21 consecutive days. The vehicle was a 0.5% MC suspension containing 1% tween-80. On Tuesday and Thursday each week, tumor volumes and body weight of the mice were measured, and the nude mice were sacrificed on day 21 after the administration. […] The toxicity of the compounds was evaluated according to the body weight of the mice.

MIA PaCa-2 cells [4] = assay: In-vitro anti-proliferative activity against MIA PaCa-2 cells; format: cell-based; conditions: Homo sapiens, 72 h after dosing, intracellular ATP content
Protocol: as §1, with “cells/well.” for “cells/well, and 20 nM gemcitabine was added.”, “5 μM” for “100 nM”

[5] = Liver microsomal stability (human); format: in vitro ADME; conditions: human liver microsomes, 1 μM compound, NADPH regeneration system, 37° C.; read-out: T1/2 (min) Human
Protocol: as §2

[6] = Pharmacokinetic evaluation in rats; format: in vivo, SD female rats; conditions: female, SD, rat, plasma
Protocol: SPF-grade SD female rats aged 7 to 10 weeks were intravenously administered and orally administered at a dose of 1 mg/kg and 10 mg/kg, respectively. The rats were fasted for at least 12 h before the administration and given food 4 h after the administration, and they were given ad libitum access to water during the experiment.
On the day of the experiment, animals in the intravenous group were administered the corresponding compound by single injection via the tail vein at an administration volume of 2 mL/kg, and animals in the oral group were administered the corresponding compound by single intragastric injection at an administration volume of 10 mL/kg. The animals were weighed before administration, and the administration volume was calculated according to the body weight. The sample collection time was 0.083 h (only intravenous group), 0.125 h (only oral group), 0.25 h, 0.5 h, 1 h, 2 h, 4 h, 6 h, 8 h and 24 h. About 200 μL of whole blood (EDTA-K2 anticoagulated) was collected via the jugular vein or other suitable vein at each time point and used to prepare plasma for concentration determination by high performance liquid chromatography-tandem mass spectrometry (LC-MS/MS). All animals were suffocated by CO2 after the PK samples were collected at the last time point. The plasma concentrations were processed using a non-compartmental model of Winnolin™ version 8.2 (Pharsight, mountain View, CA) pharmacokinetic software, and the pharmacokinetic parameters were calculated using a linear-log trapezoidal method.

[7] = In vivo pharmacokinetic experiment in mice; design: species or system CD-1 female mice; conditions: female, CD-1, mouse, plasma; for Cmax: read-out: Cmax; for Tmax: read-out: Tmax; for Vd: read-out: Vdss
Protocol: CD-1 female mice aged 7 to 10 weeks were intravenously administered and orally administered at a dose of 2 mg/kg and 10 mg/kg, respectively. The mice were fasted for at least 12 h before the administration and given food 4 h after the administration, and they were given ad libitum access to water during the experiment.
On the day of the experiment, animals in the intravenous group were administered the corresponding compound by single injection via the tail vein at an administration volume of 10 mL/kg, and animals in the oral group were administered the corresponding compound by single intragastric injection at an administration volume of 10 mL/kg. The animals were weighed before administration, and the administration volume was calculated according to the body weight. The sample collection time was 0.083 h, 0.167 h, 0.5 h, 1 h, 2 h, 4 h, 8 h and 24 h. About 200 μL of whole blood was collected through the orbital venous plexus at each time point and used to prepare plasma for concentration determination by high performance liquid chromatography-tandem mass spectrometry (LC-MS/MS). The plasma concentrations were processed using a non-compartmental model of Winnolin pharmacokinetic software, and the pharmacokinetic parameters were calculated using a linear-log trapezoidal method.

[8] = system: Human colon cancer HT29 cells; assay: In vivo efficacy in HT-29 model, alone and with gemcitabine; design: species or system nude mouse; conditions: HT-29 model in nude mice, day 21
Protocol: After being subcultured, the cells were collected when they reached the desired amount. 1×10^7 HT29 cells were injected into the left dorsal side of each nude mouse, and the animals were randomly grouped for administration after tumors grew to 100-200 mm^3. The groups were as follows: a solvent control group of 6 mice, a single drug group of 15 mg/kg gemcitabine (GMC), and a combination group of 15 mg/kg gemcitabine and a compound. Gemcitabine was administered intraperitoneally with PBS as a vehicle once a week. The compounds were administered 3 days a week and interrupted for 4 days (3 on/4 off), for 21 consecutive days, and the vehicle was a 0.5% MC suspension containing 1% tween-80. On Tuesday and Thursday each week, tumor volumes and body weight of the mice were measured, and the nude mice were sacrificed on day 21 after the administration. […] The toxicity of the compounds was evaluated according to the body weight of the mice.

[9] = compound 20 mpk BID PO 3 on/4 off + GMC 15 mpk QW IP
[10] = single agent, 20 mpk BID PO, 3on/4off

SMILES	IC50 (MIA PaCa-2 cells [1]) [nM]	half-life at 1 μM [2] [min]	TGI(%) [3] [%]	IC50 (MIA PaCa-2 cells [4]) [nM]	half-life at 1 μM [5] [min]	AUC(0-t) ([7]; Oral administration (10 mg/kg)) [ng·h/mL]	bioavailability ([7]; Oral administration (10 mg/kg)) [%]	half-life ([7]; Oral administration (10 mg/kg)) [min]	Cmax ([7]; Oral administration (10 mg/kg)) [ng/mL]	Tmax ([7]; Oral administration (10 mg/kg)) [min]	AUC(0-t) ([7]; iv, Injection (2 mg/kg)) [ng·h/mL]	clearance ([7]; iv, Injection (2 mg/kg)) [mL/min/kg]	half-life ([7]; iv, Injection (2 mg/kg)) [min]	Vd ([7]; iv, Injection (2 mg/kg)) [L/kg]	TGI(%) [8, 9] [%]	TGI(%) [8, 10] [%]	also measured
C[C@@H]1COCCN1c1cc(C2(C#N)CCCC2)c2ccnc(-c3ccn[nH]3)c2n1 [Compound 27]	1.48	9.14	62.7	1000 to 5000	27.2	–	–	–	–	–	–	–	–	–	–	–	–
C[C@@H]1COCCN1c1cc(C2(C#N)CCOCC2)c2ccnc(-c3ccn[nH]3)c2n1 [Compound 29]	1.5	8.68	83.2	< 1000	51.4	3300	34.5	46.8	1720	30	1920	17.4	40.2	0.58	85.3	49.9	AUC(0-t) ([6]; Oral administration (10 mg/kg)): 8030 ng·h/mL; bioavailability ([6]; Oral administration (10 mg/kg)): 120%; half-life ([6]; Oral administration (10 mg/kg)): 171 min; Cmax ([6]; Oral administration (10 mg/kg), read-out: Cmax): 1550 ng/mL; Tmax ([6]; Oral administration (10 mg/kg), read-out: Tmax): 60 min; AUC(0-t) ([6]; iv, Injection (1 mg/kg)): 669 ng·h/mL; clearance ([6]; iv, Injection (1 mg/kg)): 24.9 mL/min/kg; half-life ([6]; iv, Injection (1 mg/kg)): 103 min; Vd ([6]; iv, Injection (1 mg/kg), read-out: Vdss): 3 L/kg
C[C@@H]1COCCN1c1cc(C2(C#N)CCC(O)CC2)c2ccnc(-c3ccn[nH]3)c2n1 (stereo partly drawn) [Compound 33, (R)-4-hydroxy-1-(2-(3-methylmorpholine)-8-(1H-pyrazol-5-yl)-1,7-naphthyridin-4-yl)cyclohexane-1-carbonitrile]	1.08	19.6	79.1	< 1000	632	937	31.8	41.4	1010	30	588	56.6	96.6	1.27	82.3	57.4	–
C[C@@H]1COCCN1c1cc(C2(C#N)CCC(N(C)C)CC2)c2ccnc(-c3ccn[nH]3)c2n1 (stereo partly drawn) [Compound 34, (R)-4-(dimethylamino)-1-(2-(3-methylmorpholine)-8-(1H-pyrazol-5-yl)-1,7-naphthyridin-4-yl)cyclohexane-1-carbonitrile]	0.624	52.4	81.4	< 1000	61.4	–	–	–	–	–	–	–	–	–	78.1	58.3	–
C[C@@H]1COCCN1c1cc(C2(C#N)CCC(N3CCCC3)CC2)c2ccnc(-c3ccn[nH]3)c2n1 (stereo partly drawn) [Compound 35]	0.661	–	–	< 1000	–	–	–	–	–	–	–	–	–	–	–	–	–
C[C@@H]1COCCN1c1cc(C2(C#N)CCN(C)CC2)c2ccnc(-c3ccn[nH]3)c2n1 [Compound 43]	1.24	18.9	75.3	< 1000	9.44	439	35.5	47.4	616	15	247	135	13.2	1.79	84.4	51.2	–
COC1CCC(C#N)(c2cc(N3CCOC[C@H]3C)nc3c(-c4ccn[nH]4)nccc23)CC1 (stereo partly drawn) [Compound 53, (R)-4-methoxy-1-(2-(3-methylmorpholine)-8-(1H-pyrazol-5-yl)-1,7-naphthyridin-4-yl)cyclohexane-1-carbonitrile]	–	7.78	–	< 1000	24.8	669	30.2	87	299	30	444	75.1	16.2	1.61	–	–	–
C[C@@H]1COCCN1c1cc(C2(C#N)CCN(C3CCCC3)CC2)c2ccnc(-c3ccn[nH]3)c2n1 [Compound 69]	–	7.52	–	< 1000	5.9	–	–	–	–	–	–	–	–	–	–	–	–
C[C@@H]1COCCN1c1cc(C2(C#N)CCN(CC(N)=O)CC2)c2ccnc(-c3ccn[nH]3)c2n1 [Compound 76]	–	–	–	< 1000	–	–	–	–	–	–	–	–	–	–	–	–	–
